This is an account of results in patent EP3628672A1 (priority 2018, dated 2020).

Like-named read-outs stand apart in the source and are kept apart here. A value given as a limit tells only on which side of the number the result lay.

Test [1] concerns the target T1, purified LasB protein from P. aeruginosa (Pseudomonas aeruginosa, UniProt P14756).
T1 construct: purchased Merck or Charles River Laboratories
The test is described as follows: Fluorometric assay to determine Ki (Abz-Ala-Gly-Leu-Ala-p-Nitro-Benzyl-Amide substrate). Format: biochemical. As for the experimental part: (§1) Experiments were therefore conducted (1) to measure the potency of inhibition of compounds of the invention against purified Pseudomonas aeruginosa LasB enzyme and also experiments were conducted (2) to measure the ability of compounds of the invention to inhibit LasB-catalysed elastin degradation. The first assay uses a commercial fluorescent synthetic peptide and purified LasB enzyme. The LasB hydrolysis kinetics are measured allowing the determination of the IC50 and Ki of the inhibitors; the second is a more physiological assay using dialysed Pseudomonas aeruginosa supernatant as source of enzyme, plus its natural substrate Elastin. It is an "end point assay" that determines the percentage of LasB inhibition by each compound for one particular time point and inhibitor concentration. Technical details are described below:
This assay uses commercially available substrate (Abz-Ala-Gly-Leu-Ala-p-Nitro-Benzyl-Amide (Ex: 340 nm, Em: 415 nm) from Peptide International) and purified LasB protein from P. aeruginosa (provided by Merck or Charles River Laboratories). It is performed to determine LasB elastase activity and assess compound inhibition in 96-well plate format. All compounds of Formula (I) were assessed using the method described below.
Method: 10 to 140 ng/ml purified LasB is incubated with 250 µM Abz-Ala-Gly-Leu-Ala-p-Nitro-Benzyl-Amide in 50 mM Tris-HCl pH 7.4, 2.5 mM CaCl2, 0.01% of Triton X100 at 37°C. LasB activity (corresponding to fluorescence emission induced by substrate hydrolysis) is measured over 30 min at 37°C with a fluorescence plate reader such as the Perkin Elmer Envision or similar. Different range of inhibitor concentrations are routinely assessed depending of inhibitor potency from 0.0016 to 200 µM (2-fold dilutions series) in order to determine IC50.
The equation used to calculate the Ki from IC50 is: Ki = IC50 / (1+([S]/Km)) where [S] = 250 µM and Km = 214 µM.

The target of test [2] is T2, LasB (Pseudomonas aeruginosa, UniProt P14756).
T2 construct: uses as source of enzyme dialysed supernatant from P. aeruginosa PAO1; endogenous in cells; host or cells: P. aeruginosa PAO1 culture supernatant, filtered and dialysed
T2 sequence (P14756 198-498): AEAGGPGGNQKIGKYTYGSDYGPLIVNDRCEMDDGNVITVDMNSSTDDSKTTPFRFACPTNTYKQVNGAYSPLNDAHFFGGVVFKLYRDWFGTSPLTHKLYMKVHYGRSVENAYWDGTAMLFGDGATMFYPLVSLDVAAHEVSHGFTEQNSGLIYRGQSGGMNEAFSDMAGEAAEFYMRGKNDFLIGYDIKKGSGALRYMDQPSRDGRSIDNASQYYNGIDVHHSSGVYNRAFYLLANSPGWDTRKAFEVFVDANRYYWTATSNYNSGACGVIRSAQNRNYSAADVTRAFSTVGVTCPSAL
Nature of the test: Elastin assay to determine % inhibition (Elastin Congo-Red, dialysed culture supernatant). Format: biochemical, P. aeruginosa PAO1. Particulars: read-out: Elastin hydrolysis % inhibition @ 50 / 25 µM inhibitor concentration. As for the experimental part:
as §1
The Elastin assay uses as source of enzyme dialysed supernatant from P. aeruginosa PAO1 and the Elastin Congo-Red as substrate. The natural LasB substrate, elastin, is complexed with the congo-red dye (Elastin Congo-Red, ECR). The elastolysis activity from the culture supernatant will degrade elastin and release the congo-red dye into the supernatant. This red dye release can be measured with a spectrophotometer.
Method: To determine LasB elastase activity and assess compound inhibition, an overnight culture of P. aeruginosa strain PAO1 is diluted in LB medium. After reaching an OD600nm of 0.6, this culture is diluted and incubated for additional 18-24 hours in a shaking incubator. Culture supernatants are recovered by centrifugation and filtrated through a […] filter. These supernatants are dialysed (filtration molecules < 20kDa) into a 50 mM Tris-HCl pH 7.4, 2.5 mM CaCl2 solution at 4°C under agitation for 24 hours. Supernatant dialysed is then mixed volume/volume with the ECR suspension (20 mg/mL of ECR in 100 mM Tris-HCl pH 7.4 buffer supplemented with 1 mM CaCl2) supplemented with Triton X100 (final concentration of 0.01%) in presence of DMSO (positive control) and/or different concentrations of compound (routinely 50 to 1.56 µM). As a negative control, the dialysed supernatant is replaced by Tris-HCl solution (50 mM Tris-HCl pH 7.4, 2.5 mM CaCl2). The mixed reaction is then incubated overnight in a 37°C shaking incubator. The reaction supernatant is recovered by centrifugation and the release of congo-red is measured by its absorbance at 495 nm (OD495nm).
Percentage inhibition is determined using the following equation: ((OD495nmvalue of positive control−OD495nmvalue of negative control)−(OD495nmvalue of treated supernatant−OD495nmvalue of positive control))/(OD495nmvalue of positive control−OD495nmvalue of negative control) × 100. [formula]

T1 sequence (P14756 198-498): as above

The term Ki denotes a dissociation constant, usually derived from enzyme kinetics or from competition with a known ligand. For the molecule `CN1CCN(c2ccc(-c3csc(CNC(=O)C4(CC(=O)O)Cc5ccccc5C4)n3)cn2)CC1` [Example 34, 2-[2-[[4-[6-(4-methylpiperazin-1-yl)-3-pyridyl]thiazol-2-yl]methylcarbamoyl]indan-2-yl]acetic acid], the Ki in test [1] fell in the range of 0.05 to 0.2 µM. Further, in test [2], the inhibition at 25 µM fell in the range of 60 to 75%.
For the molecule `CN(C)C1CN(c2ccc(-c3csc(CNC(=O)C4(CC(=O)O)Cc5ccccc5C4)n3)cn2)C1` [Example 35, 2-[2-[[4-[6-[3-(dimethylamino)azetidin-1-yl]-3-pyridyl]thiazol-2-yl]methylcarbamoyl]indan-2-yl]acetic acid], in test [1], the inhibition constant (Ki) was 0.05 to 0.2 µM. In test [2], the inhibition at 25 µM was in the range of 60 to 75%.
On to `CN1CCN(C(=O)CN2CCN(c3ccc(-c4csc(CNC(=O)C5(CC(=O)O)Cc6ccccc6C5)n4)cc3)CC2)CC1` [Example 36, 2-[2-[[4-[4-[4-[2-(4-methylpiperazin-1-yl)-2-oxo-ethyl]piperazin-1-yl]phenyl]thiazol-2-yl]methylcarbamoyl]indan-2-yl]acetic acid], for which, in test [1], the Ki was less than 0.05 µM. Besides, the inhibition at 25 µM in test [2] is more than 75%.
As for `CN(C)CC#Cc1ccc(-c2csc(CNC(=O)C3(CC(=O)O)Cc4ccccc4C3)n2)cc1` [Example 37, 2-[2-[[4-[4-[3-(dimethylamino)prop-1-ynyl]phenyl]thiazol-2-yl]methylcarbamoyl]indan-2-yl]acetic acid], the Ki in test [1] lay within 0.05 to 0.2 µM. Also, the inhibition at 25 µM in test [2] fell in the range of 60 to 75%.
Take `CN1CCN(C(=O)COc2ccc(-c3csc(CNC(=O)C4(CC(=O)O)Cc5ccccc5C4)n3)cn2)CC1` [Example 38, 2-[2-[[4-[6-[2-(4-methylpiperazin-1-yl)-2-oxo-ethoxy]-3-pyridyl]thiazol-2-yl]methylcarbamoyl]indan-2-yl]acetic acid]: the Ki in test [1] fell in the range of 0.05 to 0.2 µM. Also, in test [2], the inhibition at 25 µM lay in the range of 60 to 75%.
In test [1], `CN(C)CC(=O)Nc1ccc(-c2csc(CNC(=O)C3(CC(=O)O)Cc4ccccc4C3)n2)cc1` [Example 39, 2-[2-[[4-[4-[[2-(dimethylamino)acetyl]amino]phenyl]thiazol-2-yl]methylcarbamoyl]indan-2-yl]acetic acid] had an inhibitory constant (Ki) of 0.05 to 0.2 µM. In addition, in test [2], the inhibition at 25 µM lay within 60 to 75%.
Consider `CN1CCC(C(=O)Nc2ccc(-c3csc(CNC(=O)C4(CC(=O)O)Cc5ccccc5C4)n3)cc2)CC1` [Example 43, 2-[2-[[4-[4-[(1-methylpiperidine-4-carbonyl)amino]phenyl]thiazol-2-yl]methylcarbamoyl]indan-2-yl]acetic acid], for which the inhibitory constant (Ki) in test [1] was in the range of 0.2 to 10 µM. In addition, the inhibition at 25 µM in test [2] fell in the range of 60 to 75%.
In test [1], `CN1CCN(C(=O)Nc2ccc(-c3csc(CNC(=O)C4(CC(=O)O)Cc5ccccc5C4)n3)cc2)CC1` [Example 44, 2-[2-[[4-[4-[(4-methylpiperazine-1-carbonyl)amino]phenyl]thiazol-2-yl]methylcarbamoyl]indan-2-yl]acetic acid] showed a Ki of 0.05 to 0.2 µM. Further, the inhibition at 25 µM in test [2] was in the range of 60 to 75%.
`CN1CCN(CC(=O)Nc2ccc(-c3csc(CNC(=O)C4(CC(=O)O)Cc5ccccc5C4)n3)cc2)CC1` [Example 45, 2-[2-[[4-[4-[[2-(4-methylpiperazin-1-yl)acetyl]amino]phenyl]thiazol-2-yl]methylcarbamoyl]indan-2-yl]acetic acid] gave a Ki in test [1] of 0.05 to 0.2 µM. Besides, the inhibition at 25 µM in test [2] was 60 to 75%.
Molecule `CN1CCN(C(=O)COc2ccc(-c3csc(CNC(=O)C4(CC(=O)O)Cc5ccccc5C4)n3)cc2)CC1` [Example 46, 2-[2-[[4-[4-[2-(4-methylpiperazin-1-yl)-2-oxo-ethoxy]phenyl]thiazol-2-yl]methylcarbamoyl]indan-2-yl]acetic acid] gave an inhibition constant Ki in test [1] of 0.05 to 0.2 µM. Also, the inhibition at 25 µM in test [2] is more than 75%.
Consider `C[N+]1(C)CCN(C(=O)COc2ccc(-c3csc(CNC(=O)C4(CC(=O)[O-])Cc5ccccc5C4)n3)cc2)CC1` [Example 47, 2-[2-[[4-[4-[2-(4,4-dimethylpiperazin-4-ium-1-yl)-2-oxo-ethoxy]phenyl]thiazol-2-yl]methylcarbamoyl]indan-2-yl]acetate], for which the inhibition constant (Ki) in test [1] lay within 0.2 to 10 µM. In addition, the inhibition at 25 µM in test [2] fell in the range of 60 to 75%.
As for `O=C(O)CC1(C(=O)NCc2nc(-c3ccc(OCCN4CCOCC4)cc3)cs2)Cc2ccccc2C1` [Example 49, 2-[2-[[4-[4-(2-morpholinoethoxy)phenyl]thiazol-2-yl]methylcarbamoyl]indan-2-yl]acetic acid], the Ki in test [1] fell in the range of 0.05 to 0.2 µM. In test [2], the inhibition at 25 µM was 60 to 75%.
As for `C[N+]1(CCOc2ccc(-c3csc(CNC(=O)C4(CC(=O)[O-])Cc5ccccc5C4)n3)cc2)CCOCC1` [Example 50, 2-[2-[[4-[4-[2-(4-methylmorpholin-4-ium-4-yl)ethoxy]phenyl]thiazol-2-yl]methylcarbamoyl]indan-2-yl]acetate], in test [1], the inhibition constant (Ki) fell in the range of 0.2 to 10 µM. Besides, the inhibition at 25 µM in test [2] lay within 60 to 75%.
`C[n+]1ccc(COc2ccc(-c3csc(CNC(=O)C4(CC(=O)[O-])Cc5ccccc5C4)n3)cc2)cc1` [Example 51, 2-[2-[[4-[4-[(1-methylpyridin-1-ium-4-yl)methoxy]phenyl]thiazol-2-yl]methylcarbamoyl]indan-2-yl]acetate] returned an inhibition constant Ki in test [1] of 0.05 to 0.2 µM. Moreover, in test [2], the inhibition at 25 µM lay within 60 to 75%.
With `CN1CCN(C(=O)COc2cccc(-c3csc(CNC(=O)C4(CC(=O)O)Cc5ccccc5C4)n3)c2)CC1` [Example 54, 2-[2-[[4-[3-[2-(4-methylpiperazin-1-yl)-2-oxo-ethoxy]phenyl]thiazol-2-yl]methylcarbamoyl]indan-2-yl]acetic acid], the inhibitory constant (Ki) in test [1] (Ki calculated from IC50, [S] = 250 µM, Km = 214 µM, 37°C, pH 7.4) is 0.2 to 10 µM. In addition, the inhibition at 25 µM in test [2] fell in the range of 60 to 75%.
As to `O=C(O)CC1(C(=O)NCc2nc(-c3ccc(OCCCN4CCOCC4)cc3)cs2)Cc2ccccc2C1` [Example 55, 2-[2-[[4-[4-(3-morpholinopropoxy)phenyl]thiazol-2-yl]methylcarbamoyl]indan-2-yl]acetic acid], the inhibition constant Ki in test [1] is 0.05 to 0.2 µM. Also, the inhibition at 25 µM in test [2] lay in the range of 60 to 75%.
As to `C[N+]1(CCCOc2ccc(-c3csc(CNC(=O)C4(CC(=O)[O-])Cc5ccccc5C4)n3)cc2)CCOCC1` [Example 56, 2-[2-[[4-[4-[3-(4-methylmorpholin-4-ium-4-yl)propoxy]phenyl]thiazol-2-yl]methylcarbarmoyl]indan-2-yl]acetate], the inhibition constant Ki in test [1] lay within 0.05 to 0.2 µM. For the same molecule, the inhibition at 25 µM in test [2] was in the range of 60 to 75%.
`CN1CCN(CCCOc2ccc(-c3csc(CNC(=O)C4(CC(=O)O)Cc5ccccc5C4)n3)cc2)CC1` [Example 57, 2-[2-[[4-[4-[3-(4-methylpiperazin-1-yl)propoxy]phenyl]thiazol-2-yl]methylcarbamoyl]indan-2-yl]acetic acid]: in test [1], the Ki lay in the range of 0.05 to 0.2 µM. For the same molecule, the inhibition at 25 µM in test [2] lay in the range of 60 to 75%.
In the case of `O=C(O)CC1(C(=O)NCc2nc(-c3ccc(OCCCN4CCCC4)cc3)cs2)Cc2ccccc2C1` [Example 58, 2-[2-[[4-[4-(3-pyrrolidin-1-ylpropoxy)phenyl]thiazol-2-yl]methylcarbamoyl]indan-2-yl]acetic acid], the Ki in test [1] fell in the range of 0.05 to 0.2 µM. For the same molecule, the inhibition at 25 µM in test [2] is 60 to 75%.
In the case of `O=C([O-])CC1(C(=O)NCc2nc(-c3ccc(OCCC[n+]4ccccc4)cc3)cs2)Cc2ccccc2C1` [Example 59, 2-[2-[[4-[4-(3-pyridm-1-ium-1-ylpropoxy)phenyl]thiazol-2-yl]methylcarbamoyl]indan-2-yl]acetate], in test [1], the inhibition constant Ki fell in the range of 0.05 to 0.2 µM. Also, the inhibition at 25 µM in test [2] lay within 60 to 75%.
